≈ marks a conversion by molar mass, not a printed value.
Columns and labels:
Assay type in all cases: functional
Micrococcus luteus = experiment: Antimicrobial activity against Micrococcus luteus ATCC 4698 after 24 hr by broth dilution method; conditions: ATCC 4698, 24 h
Trichophyton longifusum = experiment: Antimicrobial activity against Trichophyton longifusum ATCC 22397 after 24 hr by broth dilution method; conditions: ATCC 22397, 24 h
Aspergillus niger = experiment: Antimicrobial activity against Aspergillus niger ATCC 9142 after 24 hr by broth dilution method; conditions: ATCC 9142, 24 h
Proteus mirabilis = experiment: Antimicrobial activity against Proteus mirabilis ATCC 49565 after 24 hr by broth dilution method; conditions: ATCC 49565, 24 h
Bacillus cereus = experiment: Antimicrobial activity against Bacillus cereus ATCC 11778 after 24 hr by broth dilution method; conditions: ATCC 11778, 24 h
Aspergillus awamori = experiment: Antimicrobial activity against Aspergillus awamori ATCC 22342 after 24 hr by broth dilution method; conditions: ATCC 22342, 24 h
Candida albicans = experiment: Antimicrobial activity against Candida albicans ATCC 10231 after 24 hr by broth dilution method; conditions: ATCC 10231, 24 h
Aspergillus fumigatus = experiment: Antimicrobial activity against Aspergillus fumigatus after 24 hr by broth dilution method
Escherichia coli = experiment: Antimicrobial activity against Escherichia coli ATCC 25922 after 24 hr by broth dilution method; conditions: ATCC 25922, 24 h
Klebsiella pneumoniae = experiment: Antimicrobial activity against Klebsiella pneumoniae ATCC 13883 after 24 hr by broth dilution method; conditions: ATCC 13883, 24 h
Rhizoctonia solani = experiment: Antimicrobial activity against Rhizoctonia solani ATCC 76131 after 24 hr by broth dilution method; conditions: ATCC 76131, 24 h
Aspergillus flavus = experiment: Antimicrobial activity against Aspergillus flavus ATCC 15517 after 24 hr by broth dilution method; conditions: ATCC 15517, 24 h
Staphylococcus hominis = experiment: Antimicrobial activity against Staphylococcus hominis ATCC 27844 after 24 hr by broth dilution method; conditions: ATCC 27844, 24 h
Proteus vulgaris = experiment: Antimicrobial activity against Proteus vulgaris ATCC 13315 after 24 hr by broth dilution method; conditions: ATCC 13315, 24 h
Pseudomonas aeruginosa = experiment: Antimicrobial activity against Pseudomonas aeruginosa ATCC 10145 after 24 hr by broth dilution method; conditions: ATCC 10145, 24 h
Bacillus spizizenii = experiment: Antimicrobial activity against Bacillus subtilis subsp. spizizenii ATCC 6633 after 24 hr by broth dilution method; conditions: ATCC 6633, 24 h
Microsporum canis = experiment: Antimicrobial activity against Arthroderma otae ATCC 11622 after 24 hr by broth dilution method; conditions: ATCC 11622, 24 h
Alternaria alternata = experiment: Antimicrobial activity against Alternaria alternata ATCC 66868 after 24 hr by broth dilution method; conditions: ATCC 66868, 24 h
Staphylococcus aureus = experiment: Antimicrobial activity against Staphylococcus aureus ATCC 25923 after 24 hr by broth dilution method; conditions: ATCC 25923, 24 h
[1] = system: Staphylococcus epidermidis; experiment: Antimicrobial activity against Staphylococcus epidermidis ATCC 12228 after 24 hr by broth dilution method; conditions: ATCC 12228, 24 h
Fusarium solani = experiment: Antimicrobial activity against Fusarium solani ATCC 38136 after 24 hr by broth dilution method; conditions: ATCC 38136, 24 h
Salmonella typhi = experiment: Antimicrobial activity against Salmonella enterica subsp. enterica serovar Typhi ATCC 19430 after 24 hr by broth dilution method; conditions: ATCC 19430, 24 h
Trichoderma viride = experiment: Antimicrobial activity against Hypocrea rufa ATCC 52440 after 24 hr by broth dilution method; conditions: ATCC 52440, 24 h
Bacillus pumilus = experiment: Antimicrobial activity against Bacillus pumilus ATCC 14884 after 24 hr by broth dilution method; conditions: ATCC 14884, 24 h

| Compound | MIC (Micrococcus luteus) [µg/mL] | MIC (Trichophyton longifusum) [µg/mL] | MIC (Aspergillus niger) [µg/mL] | MIC (Proteus mirabilis) [µg/mL] | MIC (Bacillus cereus) [µg/mL] | MIC (Aspergillus awamori) [µg/mL] | MIC (Candida albicans) [µg/mL] | MIC (Aspergillus fumigatus) [µg/mL] | MIC (Escherichia coli) [µg/mL] | MIC (Klebsiella pneumoniae) [µg/mL] | MIC (Rhizoctonia solani) [µg/mL] | MIC (Aspergillus flavus) [µg/mL] | MIC (Staphylococcus hominis) [µg/mL] | MIC (Proteus vulgaris) [µg/mL] | MIC (Pseudomonas aeruginosa) [µg/mL] | MIC (Bacillus spizizenii) [µg/mL] | MIC (Microsporum canis) [µg/mL] | MIC (Alternaria alternata) [µg/mL] | MIC (Staphylococcus aureus) [µg/mL] | MIC [1] [µg/mL] | further results |
| --- | --- | --- | --- | --- | --- | --- | --- | --- | --- | --- | --- | --- | --- | --- | --- | --- | --- | --- | --- | --- | --- |
| O=C1Nc2ccc(Cl)cc2/C1=N/N1C(=O)C(Cl)C1c1ccccc1O (configuration not stated) | 150 (≈ 399 µM) | 150 (≈ 399 µM) | 75 (≈ 199 µM) | 150 (≈ 399 µM) | 300 (≈ 797 µM) | 150 (≈ 399 µM) | 75 (≈ 199 µM) | 150 (≈ 399 µM) | 150 (≈ 399 µM) | 300 (≈ 797 µM) | 150 (≈ 399 µM) | 150 (≈ 399 µM) | 300 (≈ 797 µM) | 150 (≈ 399 µM) | 300 (≈ 797 µM) | 300 (≈ 797 µM) | 150 (≈ 399 µM) | 150 (≈ 399 µM) | 150 (≈ 399 µM) | 300 (≈ 797 µM) | MIC (Fusarium solani): 75 µg/mL (≈ 199 µM); MIC (Salmonella typhi): 300 µg/mL (≈ 797 µM); MIC (Trichoderma viride): 150 µg/mL (≈ 399 µM); MIC (Bacillus pumilus): 300 µg/mL (≈ 797 µM) |
| COc1cccc(C2SCC(=O)N2/N=C2\C(=O)Nc3ccc(Cl)cc32)c1 (configuration not stated) | 75 (≈ 193 µM) | 37.5 (≈ 96.7 µM) | 37.5 (≈ 96.7 µM) | 37.5 (≈ 96.7 µM) | 75 (≈ 193 µM) | 37.5 (≈ 96.7 µM) | 18.8 (≈ 48.3 µM) | 37.5 (≈ 96.7 µM) | 75 (≈ 193 µM) | 37.5 (≈ 96.7 µM) | 18.8 (≈ 48.3 µM) | 18.8 (≈ 48.3 µM) | 37.5 (≈ 96.7 µM) | 37.5 (≈ 96.7 µM) | 75 (≈ 193 µM) | 75 (≈ 193 µM) | 18.8 (≈ 48.3 µM) | 18.8 (≈ 48.3 µM) | 37.5 (≈ 96.7 µM) | 75 (≈ 193 µM) | MIC (Fusarium solani): 18.8 µg/mL (≈ 48.3 µM); MIC (Salmonella typhi): 75 µg/mL (≈ 193 µM); MIC (Trichoderma viride): 18.8 µg/mL (≈ 48.3 µM); MIC (Bacillus pumilus): 75 µg/mL (≈ 193 µM) |
| O=C1Nc2ccc(Cl)cc2/C1=N/N1C(=O)CSC1c1ccco1 (configuration not stated) | 75 (≈ 216 µM) | 18.8 (≈ 53.9 µM) | 37.5 (≈ 108 µM) | 75 (≈ 216 µM) | 75 (≈ 216 µM) | 37.5 (≈ 108 µM) | 18.8 (≈ 53.9 µM) | 18.8 (≈ 53.9 µM) | 75 (≈ 216 µM) | 75 (≈ 216 µM) | 18.8 (≈ 53.9 µM) | 37.5 (≈ 108 µM) | 37.5 (≈ 108 µM) | 75 (≈ 216 µM) | 75 (≈ 216 µM) | 37.5 (≈ 108 µM) | 37.5 (≈ 108 µM) | 37.5 (≈ 108 µM) | 75 (≈ 216 µM) | 75 (≈ 216 µM) | MIC (Fusarium solani): 37.5 µg/mL (≈ 108 µM); MIC (Salmonella typhi): 37.5 µg/mL (≈ 108 µM); MIC (Trichoderma viride): 37.5 µg/mL (≈ 108 µM); MIC (Bacillus pumilus): 37.5 µg/mL (≈ 108 µM) |

From ChEMBL document CHEMBL3046063, “Synthesis and antimicrobial activity of 5-chloroindoline-2,3-dione derivatives” (2012)
